The record followed here is article PMC11652885, “Natural volatiles preventing mosquito biting: An integrated screening platform for accelerated discovery of ORco antagonists” (The Journal of Biological Chemistry, 2024).

For this assay, the system named is Aedes albopictus. In words: Hand in a cage repellence bioassay (human hand landing counts). It is filed as in vivo. The conditions noted are these: dose 50 nmole/cm^2; preliminary tests, data not shown.
`CCCC=CC=CC=O` [compound 39, 2,4-Octadienal]: the “repellence index (RI)” value is reported as 30%-50%.
`CCCCC/C=C\CCO` [compound 54, (Z)-3-Nonen-1-ol]: the “repellence index (RI)” value was 30%-50%.
The figure for `CC1(C)C2CC3OC3(C)C1C2` (stereo not drawn) [compound 62, α-Pinene oxide] is 30%-50%.
Next, `CC1(C)C2CCC1(C)C(O)C2` (centres unmarked) [compound 64, Borneol]: “high activities”; `Cc1ccc2ccccc2n1` [compound 66, 2-Methylquinoline]: “high activities”; `CC(C)=CCC[C@](C)(O)[C@@H]1CC=C(C)CC1` [compound 77, α-Bisabolol]: 30%-50%.
The entry for `CC(C)CCCCCCCCC=CCC#N` [compound 83, 13-Methyltetradec-3-ene nitrile] is “high activities”; for `CC(C)C/C=C1/C(=O)OCC1C` (centres unmarked) [compound 98, (E)-3-Methyl-2-(3-methylbutyliden)-4-butanolide] it is “high activities”.
